We go through three molecules from article PMC6271077, “Synthesis, Anticancer and Antibacterial Activity of Salinomycin N-Benzyl Amides” (Molecules, 2014).

The subject of assay [1] is standard and "wild" strains of M. tuberculosis. The assay is described as follows: Tuberculostatic activity, all M. tuberculosis strains (overall). The class given is cell-based. The following applies: Mycobacterium tuberculosis, H37RV, read-out: MIC (over M. tuberculosis strains).
Assay [2] relates to S. epidermidis ATCC 35984. The assay is described as follows: MIC microdilution. The class given is cell-based. The following applies: Staphylococcus epidermidis. (In general: Dilution methods test growth across graded concentrations, often in twofold steps.)
The test system of a further assay is MRSE 468/11. The assay is described as follows: MIC microdilution, hospital MRSE. It counts as cell-based. As to conditions: Staphylococcus epidermidis.
The next assay concerns MRSA 585/12. The assay is described as follows: MIC microdilution, hospital MRSA. The class given is cell-based. The following applies: Staphylococcus aureus.
The subject of the next assay is S. aureus ATCC 29213. As to the kind of experiment: MIC microdilution. It counts as cell-based. The following applies: Staphylococcus aureus.
For a further assay, the system named is LoVo/dx. As to the kind of experiment: Antiproliferative SRB assay, LoVo/dx. The class given is cell-based, human. As to conditions: for IC50: Homo sapiens, LoVo/DX, 72 h, read-out: IC50 LoVo/dx; for IR LoVo/DX: IR = IC50 LoVo/dx / IC50 LoVo; for SI LoVo/DX: SI = IC50 BALB/3T3 / IC50 LoVo/dx. Background: In SRB staining, fixed cells bind dye roughly in proportion to their protein.

Assay [3] deals with M. tuberculosis isoniazid-sensitive strain (spec. 192). As to the kind of experiment: Tuberculostatic activity, test-tube dilution. As to conditions: Mycobacterium tuberculosis, read-out: MIC M. tuberculosis Isoniazid-Sensitive Strain. The class given is cell-based.
The subject of a further assay is MRSE 461/11. As to the kind of experiment: MIC microdilution, hospital MRSE. The class given is cell-based. The following applies: Staphylococcus epidermidis.
The test system of the next assay is MRSA 456/11. The assay is described as follows: MIC microdilution, hospital MRSA. As to conditions: Staphylococcus aureus. It counts as cell-based.
Assay [4] concerns M. tuberculosis standard H37Rv strain. The assay is described as follows: Tuberculostatic activity, test-tube dilution. The class given is cell-based. As to conditions: Mycobacterium tuberculosis, read-out: MIC M. tuberculosis Standard H37Rv Strain.
The next assay has as its system MRSA 573/12. As to the kind of experiment: MIC microdilution, hospital MRSA. It counts as cell-based. As to conditions: Staphylococcus aureus.
In another assay the test system is MRSE 488/11. As to the kind of experiment: MIC microdilution, hospital MRSE. The class given is cell-based. The following applies: Staphylococcus epidermidis.
A further assay relates to MRSE 460/11. As to the kind of experiment: MIC microdilution, hospital MRSE. As to conditions: Staphylococcus epidermidis. The class given is cell-based.
In assay [5] the test system is S. epidermidis ATCC 12228. The assay is described as follows: MIC microdilution. The class given is cell-based. The following applies: Staphylococcus epidermidis.
The next assay relates to S. aureus ATCC 25923. As to the kind of experiment: MIC microdilution. The class given is cell-based. The following applies: Staphylococcus aureus.
The subject of the next assay is MRSA 462/11. As to the kind of experiment: MIC microdilution, hospital MRSA. The class given is cell-based. The following applies: Staphylococcus aureus.
For a further assay, the system named is MRSE 489/11. The assay is described as follows: MIC microdilution, hospital MRSE. It counts as cell-based. The following applies: Staphylococcus epidermidis.
The test system of the next assay is MRSA 452/11. The assay is described as follows: MIC microdilution, hospital MRSA. It counts as cell-based. The following applies: Staphylococcus aureus.
Another assay concerns MRSE 459/11. The assay is described as follows: MIC microdilution, hospital MRSE. It counts as cell-based. As to conditions: Staphylococcus epidermidis.
The test system of the next assay is MRSA 586/12. As to the kind of experiment: MIC microdilution, hospital MRSA. The class given is cell-based. As to conditions: Staphylococcus aureus.
The next assay deals with MRSA 537/12. The assay is described as follows: MIC microdilution, hospital MRSA. The class given is cell-based. The following applies: Staphylococcus aureus.
The test system of the next assay is MRSE 466/11. As to the kind of experiment: MIC microdilution, hospital MRSE. As to conditions: Staphylococcus epidermidis. The class given is cell-based.
The mark [6] stands for this setting: ATCC35984, S. epidermidis ATCC 35984, 18 h, 35 °C, read-out: MIC.
Setting [7] is: hospital MRSE strain 468/11, read-out: MIC.
[8] abbreviates: hospital MRSA strain 585/12, read-out: MIC.
Setting [9] is: ATCC29213, S. aureus ATCC 29213, 18 h, 35 °C, read-out: MIC.
[10] abbreviates: hospital MRSE strain 461/11, read-out: MIC.
The mark [11] stands for this setting: hospital MRSA strain 456/11, read-out: MIC.
[12] abbreviates: hospital MRSA strain 573/12, read-out: MIC.
The mark [13] stands for this setting: hospital MRSE strain 488/11, read-out: MIC.
The mark [14] stands for this setting: hospital MRSE strain 460/11, read-out: MIC.
The mark [15] stands for this setting: ATCC12228, S. epidermidis ATCC 12228, 18 h, 35 °C, read-out: MIC.
The mark [16] stands for this setting: ATCC25923, S. aureus ATCC 25923, 18 h, 35 °C, read-out: MIC.
The mark [17] stands for this setting: hospital MRSA strain 462/11, read-out: MIC.
[18] abbreviates: hospital MRSE strain 489/11, read-out: MIC.
Where [19] appears, read: hospital MRSA strain 452/11, read-out: MIC.
The mark [20] stands for this setting: hospital MRSE strain 459/11, read-out: MIC.
The mark [21] stands for this setting: hospital MRSA strain 586/12, read-out: MIC.
Where [22] appears, read: hospital MRSA strain 537/12, read-out: MIC.
The mark [23] stands for this setting: hospital MRSE strain 466/11, read-out: MIC.

Molecules are shown by their SMILES. ≈ marks a conversion by molar mass, not a printed value. Read-outs that look alike come from different tables or passages of the source.

In the case of `CC[C@H](C(=O)NCc1ccc(F)cc1)C1CC[C@H](C)C([C@@H](C)[C@H](O)[C@H](C)C(=O)[C@H](CC)C2O[C@]3(C=C[C@@H](O)C4(CC[C@@](C)(C5CC[C@](O)(CC)[C@H](C)O5)O4)O3)[C@H](C)C[C@@H]2C)O1` (stereo partly drawn) [F-p], the minimum inhibitory concentration (MIC) (as a rule, the lowest concentration found to suppress growth) in assay [1] is 50 µg/mL (≈ 58.3 µM); in [2] (setting [6]) it was 32 µg/mL (≈ 37.3 µM); in the assay with MRSE 468/11 (setting [7]) it was 64 µg/mL (≈ 74.6 µM); with MRSA 585/12 (setting [8]), 32 µg/mL (≈ 37.3 µM); with S. aureus ATCC 29213 (setting [9]), 32 µg/mL (≈ 37.3 µM); in assay [3], 50 µg/mL (≈ 58.3 µM). Besides, the minimal inhibitory concentration (MIC) with MRSE 461/11 (setting [10]) turned out to be 32 µg/mL (≈ 37.3 µM); in the assay with MRSA 456/11 (setting [11]), 16 µg/mL (≈ 18.6 µM); in assay [4], 50 µg/mL (≈ 58.3 µM); in the assay with MRSA 573/12 (setting [12]) it was 64 µg/mL (≈ 74.6 µM); in the assay on MRSE 488/11 (setting [13]), 128 µg/mL (≈ 149 µM); in the assay with MRSE 460/11 (setting [14]), 32 µg/mL (≈ 37.3 µM). In addition, the MIC in [5] (setting [15]) came out at 16 µg/mL (≈ 18.6 µM); with S. aureus ATCC 25923 (setting [16]), 32 µg/mL (≈ 37.3 µM); in the assay with MRSA 462/11 (setting [17]) it was 32 µg/mL (≈ 37.3 µM); in the assay on MRSE 489/11 (setting [18]), 32 µg/mL (≈ 37.3 µM); in the assay with MRSA 452/11 (setting [19]) it was 16 µg/mL (≈ 18.6 µM); with MRSE 459/11 (setting [20]), 32 µg/mL (≈ 37.3 µM). For the same molecule, the figures for the minimal inhibitory concentration (MIC) in the assay on MRSA 586/12 (setting [21]), with MRSA 537/12 (setting [22]) and in the assay with MRSE 466/11 (setting [23]) were 64 µg/mL (≈ 74.6 µM), 32 µg/mL (≈ 37.3 µM) and 16 µg/mL (≈ 18.6 µM), respectively. The IC50 with LoVo/dx was 3.29 ± 0.91 µM. The “IR LoVo/DX” value in the assay on LoVo/dx is on record as 0.53. In addition, the “SI LoVo/DX” value with LoVo/dx stood at 2.62.
As to `CC[C@H](C(=O)NCc1ccc([N+](=O)[O-])cc1)C1CC[C@H](C)C([C@@H](C)[C@H](O)[C@H](C)C(=O)[C@H](CC)C2O[C@]3(C=C[C@@H](O)C4(CC[C@@](C)(C5CC[C@](O)(CC)[C@H](C)O5)O4)O3)[C@H](C)C[C@@H]2C)O1` (stereo partly drawn) [NO2-p], the minimal inhibitory concentration (MIC) came out at 50 µg/mL (≈ 56.5 µM) in assay [1]; 128 µg/mL (≈ 145 µM) in [2] (setting [6]); 128 µg/mL (≈ 145 µM) in the assay on MRSE 468/11 (setting [7]); 256 µg/mL (≈ 289 µM) with MRSA 585/12 (setting [8]); 128 µg/mL (≈ 145 µM) in the assay on S. aureus ATCC 29213 (setting [9]); 50 µg/mL (≈ 56.5 µM) in assay [3]. For the same molecule, the MIC with MRSE 461/11 (setting [10]) came out at 256 µg/mL (≈ 289 µM); in the assay on MRSA 456/11 (setting [11]), 128 µg/mL (≈ 145 µM); in [4] it was 50 µg/mL (≈ 56.5 µM); in the assay with MRSA 573/12 (setting [12]) it was 256 µg/mL (≈ 289 µM); with MRSE 488/11 (setting [13]) it was 256 µg/mL (≈ 289 µM); in the assay on MRSE 460/11 (setting [14]), 128 µg/mL (≈ 145 µM). In addition, the MIC amounted to 128 µg/mL (≈ 145 µM) in assay [5] (setting [15]); 128 µg/mL (≈ 145 µM) with S. aureus ATCC 25923 (setting [16]); 128 µg/mL (≈ 145 µM) in the assay with MRSA 462/11 (setting [17]); 256 µg/mL (≈ 289 µM) in the assay with MRSE 489/11 (setting [18]); 128 µg/mL (≈ 145 µM) with MRSA 452/11 (setting [19]); 128 µg/mL (≈ 145 µM) with MRSE 459/11 (setting [20]). For the same molecule, the minimal inhibitory concentration (MIC) in the assay on MRSA 586/12 (setting [21]), in the assay on MRSA 537/12 (setting [22]) and in the assay with MRSE 466/11 (setting [23]) was 256 µg/mL (≈ 289 µM) throughout. The IC50 in the assay on LoVo/dx was 20.4 ± 8.63 µM. Further, in the assay with LoVo/dx, the “IR LoVo/DX” value came to 1.53. Moreover, the “SI LoVo/DX” value with LoVo/dx came to 0.34.
Take `CC[C@@H](C(=O)[C@@H](C)[C@@H](O)[C@H](C)[C@@H]1O[C@@H]([C@@H](CC)C(=O)O)CC[C@@H]1C)[C@H]1O[C@]2(C=C[C@@H](O)[C@]3(CC[C@@](C)([C@H]4CC[C@](O)(CC)[C@H](C)O4)O3)O2)[C@H](C)C[C@@H]1C` [SAL, Salinomycin]: the MIC in [1] was 25 to 50 µg/mL (≈ 33.3 to 66.6 µM); in [2] (ATCC35984, 18 h) it was 2 µg/mL (≈ 2.66 µM); against MRSE 468/11 (MRSE), 16 µg/mL (≈ 21.3 µM); in the assay on MRSA 585/12 (MRSA), 16 µg/mL (≈ 21.3 µM); against S. aureus ATCC 29213 (ATCC29213, 18 h) it was 4 µg/mL (≈ 5.33 µM); in assay [3], 25 µg/mL (≈ 33.3 µM). Further, the MIC is 16 µg/mL (≈ 21.3 µM) against MRSE 461/11 (MRSE); 16 µg/mL (≈ 21.3 µM) in the assay with MRSA 456/11 (MRSA); 25 µg/mL (≈ 33.3 µM) in assay [4]; 16 µg/mL (≈ 21.3 µM) with MRSA 573/12 (MRSA); 16 µg/mL (≈ 21.3 µM) with MRSE 488/11 (MRSE); 16 µg/mL (≈ 21.3 µM) with MRSE 460/11 (MRSE). In addition, the MIC in [5] (ATCC12228, 18 h) was 2 µg/mL (≈ 2.66 µM); in the assay on S. aureus ATCC 25923 (ATCC25923, 18 h), 2 µg/mL (≈ 2.66 µM); against MRSA 462/11 (MRSA), 16 µg/mL (≈ 21.3 µM); against MRSE 489/11 (MRSE) it was 16 µg/mL (≈ 21.3 µM); in the assay with MRSA 452/11 (MRSA) it was 16 µg/mL (≈ 21.3 µM); against MRSE 459/11 (MRSE) it was 16 µg/mL (≈ 21.3 µM). The MIC came to 16 µg/mL (≈ 21.3 µM) in the assay with MRSA 586/12 (MRSA), 16 µg/mL (≈ 21.3 µM) with MRSA 537/12 (MRSA) and 8 µg/mL (≈ 10.7 µM) against MRSE 466/11 (MRSE). Further, in the assay with LoVo/dx, the IC50 worked out at 0.81 ± 0.32 µM. In the assay on LoVo/dx, the “IR LoVo/DX” value stood at 1.72. In the assay with LoVo/dx, the “SI LoVo/DX” value was found to be 16.07.
